In a compilation of properties of binary mixtures (doi:10.1016/j.molliq.2015.01.031):

Assay: xn = mol fraction of the nth substance listed
Conditions: 101 kPa

CCCC[n+]1ccn(C)c1.F[B-](F)(F)F + CC(O)CO
x2 = 0
Conditions	speed of sound [m/s]
303.15 K	1552.9
318.15 K	1518
323.15 K	1506.6

CC(O)CO (stereo unspecified) + CCCC[n+]1ccn(C)c1.F[B-](F)(F)F
speed of sound [m/s]
Conditions	x1 = 0.1182	x1 = 0.2003	x1 = 0.3122	x1 = 0.4189	x1 = 0.5064	x1 = 0.6165	x1 = 0.695	x1 = 0.797	x1 = 0.8966	x1 = 1
298.15 K	–	–	–	1545.8	1541.1	1535.1	1530.5	1524.7	1518.5	1511
303.15 K	1548.1	1544.1	1538.9	–	1529	1522.8	–	1511.8	1505.3	1497.2
308.15 K	–	1532.3	–	1521.8	1516.9	1510.4	1505.3	1498.8	1491.8	1483.1
313.15 K	1524.6	1520.6	1515.2	1509.8	1504.7	–	1492.6	1485.7	–	1469
318.15 K	1513	1509	–	1497.9	1492.5	1485.5	1480	1472.7	–	1454.9
323.15 K	1501.6	1497.4	1491.8	1486.1	1480.5	–	1467.3	1459.6	1451.4	1440.7

OCCCO + CCCC[n+]1ccn(C)c1.F[B-](F)(F)F
speed of sound [m/s]
Conditions	x1 = 0.1026	x1 = 0.2072	x1 = 0.3172	x1 = 0.3943	x1 = 0.503	x1 = 0.6011	x1 = 0.7009	x1 = 0.8006	x1 = 0.8979	x1 = 1
298.15 K	1564.2	1563.5	1565.2	–	1574.2	1580.8	1590	–	1612.8	1628.8
303.15 K	–	1551.8	1553.4	1557.4	1562.4	1569	1578.2	1589.4	1601.1	1617.6
308.15 K	1540.8	1539.9	1541.5	1545.5	1550.6	1557.2	1566.5	1577.8	–	1606.2
313.15 K	1529.1	1528.2	–	–	–	1545.5	1554.8	1566.2	1578.1	1594.8
318.15 K	1517.6	1516.6	1518.1	1522.1	1527.1	–	–	1554.6	1566.6	1583.5
323.15 K	1506.2	1505.1	1506.5	–	1515.5	1522.2	1531.6	1543.1	–	1572.1

CCCC[n+]1ccn(C)c1.F[B-](F)(F)F + OCCCO
x2 = 0
Conditions	speed of sound [m/s]
298.15 K	1565.1
303.15 K	1553.2
308.15 K	1541.3
313.15 K	1529.7
318.15 K	1518.2
323.15 K	1506.8
